How the values were obtained:
[1] = system: murine CD4 T cells; assay: Seahorse XF mitochondrial metabolism (OCR), murine CD4 T cells; assay type: cell-based; settings: 100 uM; murine CD4 T cells (FIG. 22)
Protocol: (§1) Finally, it was uncovered that 6-BT also impacts the intracellular metabolism.
(§2) OCR=oxygen consumption rate, used as a proxy of cellular utilization of mitochondrial oxidative phosphorylation. OCR was measured using a Seahorse XF Analyzer Uchimura T., The Innate Immune Sensor NLRC3 Acts as a Rheostat that Fine-Tunes T Cell Responses in Infection and Autoimmunity. Immunity 2019; Chou, AIM2 in regulatory T cells restrains autoimmune diseases, Nature 2021.

[2] = molecular target: T1, AhR (Homo sapiens, UniProt P35869); assay: AhR activation
T1 sequence (P35869 11-848): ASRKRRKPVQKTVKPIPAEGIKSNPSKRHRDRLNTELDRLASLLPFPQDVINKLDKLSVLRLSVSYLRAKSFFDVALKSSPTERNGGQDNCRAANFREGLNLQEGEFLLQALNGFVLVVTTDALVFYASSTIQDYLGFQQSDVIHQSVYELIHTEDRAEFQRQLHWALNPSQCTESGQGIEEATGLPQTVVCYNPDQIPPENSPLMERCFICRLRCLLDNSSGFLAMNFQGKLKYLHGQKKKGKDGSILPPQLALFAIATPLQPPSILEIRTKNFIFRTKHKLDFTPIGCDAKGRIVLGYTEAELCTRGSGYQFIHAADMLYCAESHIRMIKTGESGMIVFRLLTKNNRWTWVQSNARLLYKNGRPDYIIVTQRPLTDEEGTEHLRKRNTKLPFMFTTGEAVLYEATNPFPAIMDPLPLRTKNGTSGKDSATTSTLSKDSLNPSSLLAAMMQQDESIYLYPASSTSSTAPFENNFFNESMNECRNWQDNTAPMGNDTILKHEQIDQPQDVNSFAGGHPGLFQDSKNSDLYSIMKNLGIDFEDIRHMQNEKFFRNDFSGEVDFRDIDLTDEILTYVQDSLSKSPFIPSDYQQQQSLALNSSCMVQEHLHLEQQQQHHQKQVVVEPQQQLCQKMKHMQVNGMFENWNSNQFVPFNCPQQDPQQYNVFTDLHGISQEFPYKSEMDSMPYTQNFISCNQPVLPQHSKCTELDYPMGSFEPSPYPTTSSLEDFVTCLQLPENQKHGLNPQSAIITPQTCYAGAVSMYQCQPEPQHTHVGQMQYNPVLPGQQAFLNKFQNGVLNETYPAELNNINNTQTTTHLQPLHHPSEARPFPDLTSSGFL

[3] = system: human (Jurkat) CD4 T cells; assay: Seahorse XF mitochondrial metabolism (OCR), Jurkat CD4 T cells; assay type: cell-based; settings: 100 uM; human (Jurkat) CD4 T cells (FIG. 22)
Protocol: as §1, §2

[4] = system: INS1E cells; assay: In vitro stimulation of pancreatic beta cells: gene expression and insulin secretion; assay type: cell-based, rat
Protocol: INS1E cells (rat pancreatic beta-cell line) were maintained in complete RPMI1640 supplemented with 5% Fetal Bovine Serum, 2 mM L-glutamine, 5 μM beta-mercaptoethanol, 1 mM sodium pyruvate, 10 mM HEPES, 100 units/ml of penicillin and 100 μg/ml streptomycin. INSIE cells were seeded in 48-well plates at a density of 1×10^5 cells per well and left resting for one day. Subsequently, medium was replaced with 0.5 ml/well of INS1E complete RPMI1640 medium containing vehicle or the metabolites: 6-BT (1/10/25 μM), LysoPC(20:0) (5/10/50 μM), or MA-GPC (10/50/100 μM). After 24 hours, cells and supernatant were harvested for further analysis (gene expression and insulin secretion, respectively) and stored at −80° C. Cells were lysed in Tripure isolation reagent (Roche) before storage.
For glucose-stimulated insulin secretion (GSIS) assay, cells were preincubated in a Krebs-Ringer bicarbonate buffer (KRB) [115 mM NaCl, 5 mM KCl, 2.56 mM CaCl2), 1 mM MgCl2, 10 mM NaHCO3, 15 mM HEPES, and 0.3% of BSA (pH 7.4)] for 30 min at 37° C., following by stimulation with 1 mM glucose in KRB for 1 hour (0.5 ml/well) and stimulation with 22 mM glucose in KRB for another hour (0.5 ml/well) at 37° C. Supernatant was recovered after treatment with 1 mM glucose (Sigma-Aldrich) and 22 mM glucose and cells stored at −80° C. GSIS was performed on beta cells after treatment for 24-hour treatment with 10 μM 6-BT.
Specific ELISAs (R&D Systems) were utilized to measure the concentration of TNFα, IFNβ, and IFNγ in cell supernatant of murine monocytes, macrophages ad T cells, respectively, according to the manufacturer's instructions. The concentration of insulin after 24-hour treatment with metabolites or after GSIS were determined using Rat insulin ELISA (Mercodia) according to the manufacturer's instructions. GSIS was calculated by subtracting the concentration of insulin at 1 mM glucose to the insulin rate at 22 mM glucose.
Total RNA was extracted from Tripure isolation reagent cell lysates. RNA was converted to cDNA by with iScript kit (BioRad). Quantitative polymerase chain reaction (qPCR) was performed using SYBR Green-SensiMix (Bioline) on a CFX384 Touch Real-Time PCR Detection System (BioRad). The delta delta Ct method was used to calculate gene expression as fold-change compared to control (unstimulated conditions).
Given the positive association between plasma 6-BT levels and C-peptide concentrations (found in the clinical study), it was then questioned whether 6-BT can exert a direct effect on beta cells. Indeed, it is seen here that 6-BT induces, in IS1E beta cells, the gene expression of the transcription factors PDX1 and MAFA, which are important for beta cell maturation and functionality.

activation of AhR [2]: does not act through activation of AhR
Structure (SMILES): N[C@@H](Cc1c[nH]c2cc(Br)ccc12)C(=O)O [6-BT, 6-bromotryptophan]
mitochondrial metabolism (OCR) [1]: promotes the mitochondrial metabolism
mitochondrial metabolism (OCR) [3]: promotes the mitochondrial metabolism
pancreatic beta-cell function ([4]; INS1e beta-cells treated for 24 hours, beta cell differentiation markers (FIGS. 12 and 13)): enhances pancreatic beta-cell function
gene expression of the transcription factor MAFA ([4]; beta cells (FIG. 17)): induces
gene expression of the transcription factor PDX1 ([4]; beta cells (FIG. 17)): induces
insulin secretion at steady-state ([4]; beta cells, 24-hour treatment (FIG. 17)): promotes insulin secretion
glucose-stimulated insulin secretion ([4]; difference between insulin release at 1 mM and 22 mM glucose, 24-hour treatment with 10 μM): promotes insulin secretion
